The values below come from patent US20120052056A1, “COMPOSITION FOR IMPROVING BLOOD CIRCULATION CONTAINING FERMENTED TEA, AND PHARMACEUTICAL AND HEALTH-FOOD COMPOSITIONS COMPRISING THE SAME” (priority 2009, published 2012).

For the assay, the system named is rats fed high-cholesterol diet inducing hyperlipidemia. Put plainly: Reduction in the serum and liver lipid levels in animal model. The assay is classed as in vivo. The conditions noted are these: 200 mg/kg oral once a day for 4 weeks with hyperlipidemia-inducing diet. The protocol: Eight 8-week-old female rats weighing 250-300 g were housed in each polycarbonate cage under a 12 hr light/12 hr dark cycle at a constant temperature of 22±2° C. and a relative humidity of 55±15%. The animals were fed with a normal diet and a high-cholesterol diet and given drinking water ad libitum. The test animals were divided into four groups: a normal group, a control group, a positive control group, and a test group. The normal group was provided only with general feed, the control group was fed with a normal diet containing 1% cholesterol and 0.5% cholic acid to cause hyperlipidemia, and the positive control group was administered with fenofibric acid (200 mg/kg) that is used as an agent for treating hyperlipidemia, in which the fenofibric acid was suspended in 1% methyl cellulose (MC) and administered orally. The test group was administered orally with the post-fermented tea extract and the green tea extract every day together with a hyperlipidemia-inducing diet, in which the post-fermented tea extract and the green tea extract (200 mg/kg) were provided by oral administration once a day for 4 weeks. After the rats of each group were fasted for 12 hours, a blood sample was taken from the orbital vein and centrifuged at 10000 rcf for 10 minutes. The resulting serum was used to evaluate blood total cholesterol, LDL cholesterol and HDL-cholesterol levels. The rat's liver was collected and used to evaluate the liver cholesterol and triglyceride levels. The above analysis was carried out using an automatic blood analyzer and a Roche diagnostic kit, and the results of the analysis are shown in Table 4 (serum lipids) below and Table 5 (liver lipids).

Take `CC(C)(Oc1ccc(C(=O)c2ccc(Cl)cc2)cc1)C(=O)O` [Positive control group, fenofibric acid]: for the setting “liver”, the “Liver lipids: Total cholesterol” value was 15.43 ± 0.52 µg/mg and the “Liver lipids: Triglyceride” value worked out at 185.39 ± 23.84 µg/mg. Further, for the setting “serum”, the “Serum lipids: HDL-cholesterol” value was determined as 87.89 ± 6.84 mg/dL, the “Serum lipids: LDL-cholesterol” value stood at 75.34 ± 2.80 mg/dL and the “Serum lipids: Total cholesterol” value was 112.42 ± 13.33 mg/dL.
